Assay results as given in publication PMC6471591, “Preparation of Sesquiterpene Lactone Derivatives: Cytotoxic Activity and Selectivity of Action” (Molecules, 2019).
Like-named read-outs stand apart in the source and are kept apart here.

How the values were obtained:
[1] = tested on: HeLa cells; experiment: Antiproliferative SRB assay (NCI protocol), 48 h; assay type: cell-based, human; conditions: splenocyte CC50 versus HeLa GI50
[2] = tested on: A549 cells; experiment: Antiproliferative SRB assay (NCI protocol), 48 h; assay type: cell-based, human; conditions: splenocyte CC50 versus A549 GI50
[3] = tested on: T47-D cells; experiment: Antiproliferative SRB assay (NCI protocol), 48 h; assay type: cell-based, human; conditions: for GI50: Homo sapiens, T47D, T47-D (breast), SRB, 48 h drug exposure, read-out: 50% growth inhibition (GI50) ± SD, T47-D; for Selectivity Index, T47-D: splenocyte CC50 versus T47-D GI50
Protocol: (§1) In vitro antiproliferative activity was evaluated using the protocol of the National Cancer Institute (NCI) after 48 h of drug exposure using the sulforhodamine B (SRB) assay. […] We cannot discard that increasing lipophilicity may well result in an increase in cytotoxicity in vitro.
(§2) The following human solid tumor cell lines were used in this study: HBL-100 (breast), HeLa (cervix), SW1573 (non-small cell lung), T-47D (breast), A549 (lung), and WiDr (colon). Cells were maintained in 25 cm^2 culture flasks in RPMI 1640 supplemented with 5% heat-inactivated fetal calf serum and 2 mM L-glutamine in a 37 °C, 5% CO2, 95% humidified air incubator. Exponentially growing cells were trypsinized and resuspended in antibiotic containing medium (100 units penicillin G and 0.1 mg of streptomycin per mL). Single-cell suspensions displaying >97% viability by trypan blue dye exclusion test were subsequently counted. After counting, dilutions were made to give the appropriate cell densities for inoculation onto 96-well microtiter plates. Cells were inoculated in a volume of 100 μL per well at densities of 20,000 (WiDr), 15,000 (T-47D and A549), and 10,000 (HeLa, SW1573, and HBL-100) cells per well, based on their doubling times.
(§3) Chemosensitivity tests were performed using the SRB assay of the NCI with slight modifications. Briefly, pure compounds were initially dissolved in DMSO at 400 times the desired final maximum test concentration. Control cells were exposed to an equivalent concentration of DMSO (0.25% v/v, negative control). Each agent was tested in triplicate at different dilutions in the range 1–100 μM. Drug treatment started on day 1 after plating. Drug incubation periods were 48 h, after which cells were precipitated with 25 μL of ice-cold 50% (w/v) trichloroacetic acid and fixed for 60 min at 4 °C. Then, the SRB assay was performed. Optical density (OD) of each well was measured at 492 nm, using BioTek’s PowerWave XS Absorbance Microplate Reader (Highland Park, Winooski, VT, USA). Values were corrected for background OD from wells containing only culture medium. The percentage growth (PG) was calculated with respect to untreated control cells (C) at each level of drug concentrations based on the difference in OD at the start time (T0) and at the end of drug exposure (T), according to NCI formulas. Therefore, if T is greater than or equal to T0, the calculation is 100 × [(T–T0)/(C–T0)]. If T is lower than T0, denoting cell death, the calculation is 100 × [(T–T0)/(T0)]. The effect is defined as the growth percentage, where 50% growth inhibition (GI50) represents the concentration at which PG is +50. Based on these calculations, a PG value of 0 corresponds to the number of cells present at the beginning of drug exposure, while negative PG values denote net cell death.

[4] = tested on: SW1573 cells; experiment: Antiproliferative SRB assay (NCI protocol), 48 h; assay type: cell-based, human; conditions: for GI50: Homo sapiens, SW1573 (non-small cell lung), SRB, 48 h drug exposure, read-out: 50% growth inhibition (GI50) ± SD, SW1573; for Selectivity Index, SW1573: splenocyte CC50 versus SW1573 GI50
Protocol: as §1, §2, §3

[5] = tested on: WiDr cells; experiment: Antiproliferative SRB assay (NCI protocol), 48 h; assay type: cell-based, human; conditions: for GI50: Homo sapiens, WiDr (colon), SRB, 48 h drug exposure, read-out: 50% growth inhibition (GI50) ± SD, WiDr; for Selectivity Index, WiDr: splenocyte CC50 versus WiDr GI50
Protocol: as §1, §2, §3

[6] = tested on: HBL100 cells; experiment: Antiproliferative SRB assay (NCI protocol), 48 h; assay type: cell-based, human; conditions: splenocyte CC50 versus HBL100 GI50
[7] = tested on: HBL100 cells; experiment: Antiproliferative SRB assay (NCI protocol), 48 h; assay type: cell-based; conditions: Homo sapiens, HBL-100; HBL100 (breast), SRB, 48 h drug exposure; read-out: 50% growth inhibition (GI50) ± SD, HBL100
Protocol: as §1, §2, §3

[8] = tested on: A549 cells; experiment: Antiproliferative SRB assay (NCI protocol), 48 h; assay type: cell-based; conditions: Homo sapiens; A549 (lung), SRB, 48 h drug exposure; read-out: 50% growth inhibition (GI50) ± SD, A549
Protocol: as §1, §2, §3

[9] = tested on: HeLa cells; experiment: Antiproliferative SRB assay (NCI protocol), 48 h; assay type: cell-based; conditions: Homo sapiens; HeLa (cervix), SRB, 48 h drug exposure; read-out: 50% growth inhibition (GI50) ± SD, HeLa
Protocol: as §1, §2, §3

[10] = tested on: human solid tumor cell lines (A549, HBL-100, HeLa, SW1573, T-47D, WiDr); experiment: Antiproliferative SRB assay, whole panel of tumor cell lines; assay type: cell-based; conditions: for antiproliferative activity in words: tumor cell line panel, compared to cumanin (1); for GI50: Homo sapiens, all tested tumor cell lines, SRB, 48 h, read-out: GI50 values, range over all tested cell lines
Protocol: as §1, §2, §3

[11] = Cytotoxicity on primary cell culture (propidium iodide, flow cytometry); assay type: cell-based
Protocol: The cytotoxicity of the sesquiterpene lactones and its derivatives was evaluated using mouse splenocytes. […] Cumanin derivatives (4–11) have shown CC50 values and selectivity indexes higher than natural compound 1. […] The incorporation of two triazole groups in cumanin (1) reduced cytotoxicity on normal cells and improved selectivity against tumor cell lines.
In a 96-well plate, spleen cells from Balb/c mouse (1.5 × 10^5) were incubated with different drug dilutions (200, 100, 50, 10, and 5 μg/mL) in RPMI medium containing 10% fetal calf serum. After 48 h of incubation at 37 °C (5% CO2), cells were harvested, washed once with PBS, and stained with 2.5 μg/mL propidium iodide (PI) for 5 min at room temperature. Subsequently, cell death was assessed by flow cytometry using a BD FACSaria II cytometer. Cells incubated only with a drug vehicle were used as a 100% viability control and death percentage was calculated according to the following formula: Death(%)=[1−(%PI^−cells)drug−treated/(%PI^−cells)100% viability control]×100.
Then the concentration capable of causing cell death in 50% of splenocytes (CC50) was determined using a non-linear regression approach.

Row | Structure (SMILES) | Selectivity Index, HeLa [1] | Selectivity Index, A549 [2] | GI50 [3] | Selectivity Index, T47-D [3] | GI50 [4] | Selectivity Index, SW1573 [4] | GI50 [5] | Selectivity Index, WiDr [5] | Selectivity Index, HBL100 [6] | GI50 [7] | GI50 [8] | GI50 [9] | antiproliferative activity in words [10] | CC50 at 48 h ([11]; primary mouse splenocytes (spleen cells), Balb/c mouse spleen cells, 48 h incubation, PI staining, read-out: CC50 ± SD, splenocytes (concentration that causes 50% cell death)) | CC50 at 48 h ([11]; Balb/c, mouse) | GI50 [10]
1 | C#CCOC1CC2C(C)CC3OC(=O)C(=C)C3CC2(C)C1OCC#C (stereo not shown) [Compound 9] | 3.9 | 5.5 | 24 µM | 3.9 | 20 µM | 4.7 | 2.1 µM | 44.5 | 4.9 | 19 µM | 17 µM | 24 µM | moderate activity |  |  | 
2 | C=C1C(=O)OC2CC(C)C3CC(OCc4cn(Cc5ccccc5)nn4)C(O)C3(C)CC12 (stereo not shown) [Compound 10] | 3.5 | 6.3 | 37 µM | 3.1 | 32 µM | 3.5 | 30 µM | 3.8 | 3.9 | 29 µM | 18 µM | 32 µM | moderate activity | 114 µM |  | 
3 | C=C1C(=O)O[C@@H]2C[C@@H](C)[C@@H]3C=CC(=O)[C@@]3(C)[C@@H](O[Si](C)(C)C)[C@H]12 [Compound 13] | 5.8 | 1.9 | 0.29 µM | 3.8 | 0.28 µM | 3.9 | 0.56 µM | 2.0 | 3.0 | 0.36 µM | 0.59 µM | 0.19 µM |  |  | 1.1 µM | 0.15 to 0.59 µM
4 | C=C1C(=O)O[C@@H]2C[C@@H](C)[C@@H]3C=CC(=O)[C@@]3(C)[C@@H](O[Si](C)(C)C(C)C)[C@H]12 [Compound 14] | 9.3 | 5.0 | 0.36 µM | 3.9 | 0.19 µM | 7.4 | 0.26 µM | 5.4 | 7.0 | 0.2 µM | 0.28 µM | 0.15 µM |  |  | 1.4 µM | 0.15 to 0.59 µM
